In patent publication US11180504B2 (ORCHID PHARMA LTD., priority 2016, dated 2021):
≈ marks a conversion by molar mass, not a printed value.

Legend:
[1] = test system: methicillin-sensitive Staphylococcus aureus; test: MIC by broth micro-dilution (CLSI), methicillin-sensitive S. aureus; format: cell-based; settings: Staphylococcus aureus, ATCC 29213 / MSSA, MSSA S. aureus ATCC29213; read-out: MIC
[2] = test system: carbapenem sensitive Escherichia coli; test: MIC by broth micro-dilution (CLSI), carbapenem sensitive E. coli; format: cell-based; settings: Escherichia coli, ATCC25922, ESBL −ve E. coli ATCC25922; read-out: MIC
[3] = test system: carbapenemase producing K. pneumoniae; test: MIC by broth micro-dilution (CLSI), carbapenemase producing K. pneumoniae; format: cell-based, Klebsiella pneumoniae; settings: Klebsiella pneumoniae, ATCCBAA1705, KPC-2 K. pneumoniae ATCC BAA-1705; read-out: MIC
[4] = test system: carbapenem sensitive Pseudomonas aeruginosa; test: MIC by broth micro-dilution (CLSI), carbapenem sensitive P. aeruginosa; format: cell-based; settings: Pseudomonas aeruginosa, ATCC27853, Meropenem susceptible P. aeruginosa ATCC27853; read-out: MIC

MIC [1] [mg/L] | MIC [2] [mg/L] | MIC [3] [mg/L] | MIC [4] [mg/L] | Compound
2 (≈ 3.78 µM) | 0.25 (≈ 0.472 µM) | 1 (≈ 1.89 µM) | 8 (≈ 15.1 µM) | C[C@@H](NC(=O)Cn1cnnn1)[C@H]1C(=O)N2C(C(=O)O)=C(S[C@@H]3CN[C@H](CNS(N)(=O)=O)C3)[C@H](C)[C@H]12 [Example 305, (4R,5S,6R)-6-((R) - 1-(2-(1H-tetrazol-1-yl)acetamido)ethyl)-4-methyl-7-oxo-3-((3S,5S)-5-((sulfamoylamino)methyl)pyrrolidin-3-ylthio)-1-azabicyclo[3.2.0]hept-2-ene-2-carboxylic acid]
2 (≈ 4.35 µM) | 0.25 (≈ 0.544 µM) | 1 (≈ 2.18 µM) | 4 (≈ 8.71 µM) | C[C@@H](NC(=O)Cn1cnnn1)[C@H]1C(=O)N2C(C(=O)[O-])=C(SC3Cn4cnc[n+]4C3)[C@H](C)[C@H]12 (stereo partly drawn) [Example 306, (4R,5S,6R)-6-((R) - 1-(2-(1H-tetrazol-1-yl)acetamido)ethyl)-3-(6,7-dihydro-5H-pyrazolo[1,2-a][1,2,4]triazol-4-ium-6-ylthio)-4-methyl-7-oxo-1-azabicyclo[3.2.0]hept-2-ene-2-carboxylate]
16 (≈ 29.9 µM) | 1 (≈ 1.87 µM) | 4 (≈ 7.48 µM) | 32 (≈ 59.9 µM) | CNCc1cn(CC(=O)N[C@H](C)[C@H]2C(=O)N3C(C(=O)O)=C(S[C@@H]4CN[C@H](C(=O)N(C)C)C4)[C@H](C)[C@H]23)nn1 [Example 309, (4R,5S,6R)-3-((3S,5S)-5-(dimethylcarbamoyl)pyrrolidin-3-ylthio)-4-methyl-6-((R) - 1-(2-(4-((methylamino)methyl)-1H-1,2,3-triazol-1-yl)acetamido)ethyl)-7-oxo-1-azabicyclo[3.2.0]hept-2-ene-2-carboxylic acid]
32 (≈ 58.4 µM) | 1 (≈ 1.83 µM) | 4 (≈ 7.3 µM) | 64 (≈ 117 µM) | CNCC(=O)N[C@H](C)[C@H]1C(=O)N2C(C(=O)O)=C(S[C@@H]3CN[C@H](C(=O)N4CC[C@H](n5ncnn5)C4)C3)[C@H](C)[C@H]12 [Example 310, (4R,5S,6R)-3-((3S,5S)-5-((S)-3-(2H-tetrazol-2-yl)pyrrolidine-1-carbonyl)pyrrolidin-3-ylthio)-4-methyl-6-((R) - 1-(2-(methylamino)acetamido)ethyl)-7-oxo-1-azabicyclo[3.2.0]hept-2-ene-2-carboxylic acid]
32 (≈ 61.6 µM) | 8 (≈ 15.4 µM) | 32 (≈ 61.6 µM) | > 128 | C[C@@H](NC(=O)[C@@H](N)Cn1cccn1)[C@H]1C(=O)N2C(C(=O)O)=C(S[C@@H]3CN[C@H](C(=O)N(C)C)C3)[C@H](C)[C@H]12 [Example 311, (4R,5S,6R)-6-((R) - 1-((S)-2-amino-3-(1H-pyrazol-1-yl)propanamido)ethyl)-3-((3S,5S)-5-(dimethylcarbamoyl)pyrrolidin-3-ylthio)-4-methyl-7-oxo-1-azabicyclo[3.2.0]hept-2-ene-2-carboxylic acid]
4 (≈ 9.18 µM) | 1 (≈ 2.3 µM) | 16 (≈ 36.7 µM) | > 128 | C[C@H]([C@H]1C(=O)N2C(C(=O)O)=C(S[C@@H]3CN[C@H](C(=O)N(C)C)C3)[C@H](C)[C@H]12)n1ncnn1 [Example 313, (4R,5S,6S)-6-((R) - 1-(2H-tetrazol-2-yl)ethyl)-3-((3S,5S)-5-(dimethylcarbamoyl)pyrrolidin-3-ylthio)-4-methyl-7-oxo-1-azabicyclo[3.2.0]hept-2-ene-2-carboxylic acid]
4 (≈ 7.51 µM) | 0.25 (≈ 0.469 µM) | 2 (≈ 3.75 µM) | 4 (≈ 7.51 µM) | C[C@@H](NC(=O)Cn1cncn1)[C@H]1C(=O)N2C(C(=O)O)=C(S[C@@H]3CN[C@H](C(=O)N4CCNCC4)C3)[C@H](C)[C@H]12 [Example 314, (4R,5S,6R)-6-((R) - 1-(2-(1H-tetrazol-1-yl)acetamido)ethyl)-4-methyl-7-oxo-3-((3S,5S)-5-(piperazine-1-carbonyl)pyrrolidin-3-ylthio) - 1-azabicyclo[3.2.0]hept-2-ene-2-]

The remaining lines, values behind:

Compound | MIC [1] [mg/L] | MIC [2] [mg/L] | MIC [3] [mg/L] | MIC [4] [mg/L]
C[C@@H](NC(=O)C(F)F)[C@H]1C(=O)N2C(C(=O)O)=C(SC[C@@H]3CNCCN3)[C@H](C)[C@H]12 [Example 289] | 8 (≈ 19.1 µM) | 8 (≈ 19.1 µM) | 16 (≈ 38.2 µM) | > 128
CNCC(=O)N[C@H](C)[C@H]1C(=O)N2C(C(=O)O)=C(S[C@@H]3CN[C@H](C(=O)N4CC5CC4CN5)C3)[C@H](C)[C@H]12 (some centres unmarked) [Example 290] | 32 (≈ 63.2 µM) | 2 (≈ 3.95 µM) | 4 (≈ 7.9 µM) | 8 (≈ 15.8 µM)
CNCC(=O)N[C@H](C)[C@H]1C(=O)N2C(C(=O)O)=C(S[C@@H]3CN[C@H](CNC(=O)[C@@H]4CSCN4)C3)[C@H](C)[C@H]12 [Example 291] | 32 (≈ 60.8 µM) | 2 (≈ 3.8 µM) | 2 (≈ 3.8 µM) | 8 (≈ 15.2 µM)
CNCC(=O)N[C@H](C)[C@H]1C(=O)N2C(C(=O)O)=C(S[C@@H]3CN[C@H](C(=O)N4CC(C)(N)C4)C3)[C@H](C)[C@H]12 [Example 292] | 128 (≈ 259 µM) | 4 (≈ 8.09 µM) | 8 (≈ 16.2 µM) | 16 (≈ 32.3 µM)
C[C@@H](NCC1CC1)[C@H]1C(=O)N2C(C(=O)O)=C(S[C@@H]3CN[C@H](C(=O)N(C)C)C3)[C@H](C)[C@H]12 [Example 293] | 128 (≈ 293 µM) | 32 (≈ 73.3 µM) | 128 (≈ 293 µM) | > 128
C[C@@H](NC(=O)Cn1cnnn1)[C@H]1C(=O)N2C(C(=O)O)=C(SC3CN(C4=NCCS4)C3)[C@H](C)[C@@H]12 [Example 294] | 1 (≈ 2.03 µM) | 0.06 (≈ 0.122 µM) | 1 (≈ 2.03 µM) | 16 (≈ 32.5 µM)
CNCc1nnc(CC(=O)N[C@H](C)[C@H]2C(=O)N3C(C(=O)O)=C(S[C@@H]4CN[C@H](C(=O)N(C)C)C4)[C@H](C)[C@H]23)o1 [Example 295] | 16 (≈ 29.9 µM) | 2 (≈ 3.73 µM) | 16 (≈ 29.9 µM) | 64 (≈ 119 µM)
C[C@@H](NC(=O)Cn1ccnn1)[C@H]1C(=O)N2C(C(=O)O)=C(S[C@@H]3CN[C@H](C(=O)N(C)C)C3)[C@H](C)[C@H]12 [Example 296] | 4 (≈ 8.14 µM) | 0.5 (≈ 1.02 µM) | 2 (≈ 4.07 µM) | 64 (≈ 130 µM)
CNCC(=O)N[C@H](C)[C@H]1C(=O)N2C(C(=O)O)=C(S[C@@H]3CN[C@H](C(=O)N4C[C@@H](N)[C@H](O)C4)C3)[C@H](C)[C@H]12 [Example 297] | 16 (≈ 31.3 µM) | 1 (≈ 1.96 µM) | 2 (≈ 3.92 µM) | 4 (≈ 7.83 µM)
C[C@@H](NC(=O)Cn1cnnn1)[C@H]1C(=O)N2C(C(=O)O)=C(S[C@@H]3CN[C@H](C(=O)N4CC[C@@H](N)C4)C3)[C@H](C)[C@H]12 [Example 298, (4R,5S,6R)-6-((R)-1-(2-(1H-tetrazol-1-yl)acetamido)ethyl)-3-((3S,5S)-5-((R)-3-aminopyrrolidine-1-carbonyl)pyrrolidin-3-ylthio)-4-methyl-7-oxo-1-azabicyclo[3.2.0]hept-2-ene-2-carboxylic acid] | 1 (≈ 1.87 µM) | 0.125 (≈ 0.234 µM) | 1 (≈ 1.87 µM) | 1 (≈ 1.87 µM)
C[C@@H](NC(=O)CC(N)=O)[C@H]1C(=O)N2C(C(=O)O)=C(S[C@@H]3CN[C@H](C(=O)N4CC[C@@H](N)C4)C3)[C@H](C)[C@H]12 [Example 299, (4R,5S,6R)-6-((R) - 1-(3-amino-3-oxopropanamido)ethyl)-3-((3S,5S)-5-((R)-3-aminopyrrolidine-1-carbonyl)pyrrolidin-3-ylthio)-4-methyl-7-oxo-1-azabicyclo[3.2.0]hept-2-ene-2-carboxylic acid] | 16 (≈ 31.5 µM) | 4 (≈ 7.86 µM) | 8 (≈ 15.7 µM) | 16 (≈ 31.5 µM)
C[C@@H](NC(=O)Cn1cncn1)[C@H]1C(=O)N2C(C(=O)O)=C(S[C@@H]3CN[C@H](C(=O)N(C)C)C3)[C@H](C)[C@H]12 [Example 300, (4R,5S,6R)-6-((R) - 1-(2-(1H-1,2,4-triazol-1-yl)acetamido)ethyl)-3-((3S,5S)-5-(dimethylcarbamoyl)pyrrolidin-3-ylthio)-4-methyl-7-oxo-1-azabicyclo[3.2.0]hept-2-ene-2-carboxylic acid] | 16 (≈ 32.5 µM) | 1 (≈ 2.03 µM) | 4 (≈ 8.14 µM) | 128 (≈ 260 µM)
C[C@@H](NC(=O)Cc1nnn(C)n1)[C@H]1C(=O)N2C(C(=O)O)=C(S[C@@H]3CN[C@H](C(=O)N(C)C)C3)[C@H](C)[C@H]12 [Example 301, (4R,5S,6R)-3-((3S,5S)-5-(dimethylcarbamoyl)pyrrolidin-3-ylthio)-4-methyl-6-((R) - 1-(2-(2-methyl-2H-tetrazol-5-yl)acetamido)ethyl)-7-oxo-1-azabicyclo[3.2.0]hept-2-ene-2-carboxylic acid] | 16 (≈ 31.6 µM) | 4 (≈ 7.9 µM) | 64 (≈ 126 µM) | > 128
C[C@@H](NC(=O)Cc1nnn(C)n1)[C@H]1C(=O)N2C(C(=O)O)=C(S[C@@H]3CN[C@H](C(=O)N4CC[C@@H](N)C4)C3)[C@H](C)[C@H]12 [Example 302] | 2 (≈ 3.65 µM) | 1 (≈ 1.83 µM) | 16 (≈ 29.2 µM) | 128 (≈ 234 µM)
C[C@@H](NC(=O)c1cnccn1)[C@H]1C(=O)N2C(C(=O)O)=C(S[C@@H]3CN[C@H](C(=O)N(C)C)C3)[C@H](C)[C@H]12 [Example 303, (4R,5S,6R)-3-((3S,5S)-5-(dimethylcarbamoyl)pyrrolidin-3-ylthio)-4-methyl-7-oxo-6-((R) - 1-(pyrazine-2-carboxamido)ethyl) - 1-azabicyclo[3.2.0]hept-2-ene-2-carboxylic acid] | 2 (≈ 4.09 µM) | 4 (≈ 8.19 µM) | 64 (≈ 131 µM) | > 128
C[C@@H](NC(=O)Cc1nnnn1C)[C@H]1C(=O)N2C(C(=O)O)=C(S[C@@H]3CN[C@H](C(=O)N(C)C)C3)[C@H](C)[C@H]12 [Example 304, (4R,5S,6R)-3-((3S,5S)-5-(dimethylcarbamoyl)pyrrolidin-3-ylthio)-4-methyl-6-((R) - 1-(2-(1-methyl-1H-tetrazol-5-yl)acetamido)ethyl)-7-oxo-1-azabicyclo[3.2.0]hept-2-ene-2-carboxylic acid] | 8 (≈ 15.8 µM) | 1 (≈ 1.97 µM) | 4 (≈ 7.9 µM) | > 128
